Assay results: US7196110B2, “N-substituted tricyclic 3-aminopyrazoles as inhibitors for the treatment of cell proliferative disorders” (Janssen Phamaceutica N.V., priority 2002, dated 2007)
Where two headings read alike, the source gives them in different places.

How the values were obtained:
AsPC1 (pancreas) = test: Anti-cell proliferation in tumor cells (14C-thymidine incorporation), AsPC1; assay type: cell-based
Procedure: (§1) The effect of compounds of the invention on cell proliferation in various tumor cells was tested based on incorporation of ^14C-thymidine into DNA of cells.
(§2) Similar to those described above in 3a, except that different cells, cell growth medium, and growth supplements were used. Human tumor cell lines derived from various human tissue origins (LoVo from colon, H460 from lung, T47D from breast, PC3 from prostate, A375 from melanoma, AsPC1 from pancreas) were obtained from the American Type Culture Collection (ATCC) and cultured under specified conditions required for each cell type, as provided by ATCC. Complete medium was obtained from Cellgro: Iscove's medium with 10% Fetal Bovine Serium (FBS) (Mediatech, Inc., Herndon, Va. 20171, Cat. No. 10-016-CV).
(§3) Tumor cells were seeded at approx. 3000–8000 cells per well in a volume of 100 μl of complete medium. Cells were grown for 24 hours in complete medium, and 1 μl of test compound was serially diluted in 100% DMSO and added to each well. For maximum growth control wells, only 1 μl of 100% DMSO was added. After 24 hours incubation, 20 μl of ^14C-thymidine master mix was added to each well and the ^14C-thymidine master mix was pepared according to the following regimen:
(§4) Cells were incubated for an additional 24 hours at 37° C. in medium containing test compound and ^14C-thymidine. Then, the reaction mixture was discarded and the plate was washed 2 times each with 200 μl PBS. Subsequently, each well on the plate was filled with 200 μl of PBS. The top of the plate was sealed with transparent plate sealer and white plate backing sealers were applied to the bottom of plates. The retained ^14C inside each well was measured using a Packard TopCount.
(§5) In order to test the potency of inhibition of the present compound, IC50 of an individual compound on the inhibition of tumor cell line proliferation was measured using the above procedure. As used herein, said IC50 refers to the concentration of the test compound at which the amount of tumor cell proliferation is reduced by one-half as compared to the maximum growth control wells without the compound.

PC3 (prostate) = test: Anti-cell proliferation in tumor cells (14C-thymidine incorporation), PC3; assay type: cell-based
Procedure: as §1, §2, §3, §4, §5

T47D (breast) = test: Anti-cell proliferation in tumor cells (14C-thymidine incorporation), T47D; assay type: cell-based; conditions: Homo sapiens, read-out: IC50 on cell proliferation, T47D
Procedure: as §1, §2, §3, §4, §5

A375 (melanoma) = test: Anti-cell proliferation in tumor cells (14C-thymidine incorporation), A375; assay type: cell-based
Procedure: as §1, §2, §3, §4, §5

[1] = molecular target: T1, PDGF-receptor beta enzyme comprising the tyrosine kinase domain (Homo sapiens, UniProt P09619); test: Inhibition of PDGF-receptor kinase activity (cell-free, PLC1 peptide, 33P Flashplate); assay type: biochemical; conditions: PDGF-R kinase activity; for inhibition at 10 µM: compound at 10 uM, read-out: Percent Inhibition @ 10 uM; for IC50: read-out: IC50
T1 construct: from amino acid 545 to 1106 of GenBank Access NO: AAA36427
T1 sequence (P09619 545-1106): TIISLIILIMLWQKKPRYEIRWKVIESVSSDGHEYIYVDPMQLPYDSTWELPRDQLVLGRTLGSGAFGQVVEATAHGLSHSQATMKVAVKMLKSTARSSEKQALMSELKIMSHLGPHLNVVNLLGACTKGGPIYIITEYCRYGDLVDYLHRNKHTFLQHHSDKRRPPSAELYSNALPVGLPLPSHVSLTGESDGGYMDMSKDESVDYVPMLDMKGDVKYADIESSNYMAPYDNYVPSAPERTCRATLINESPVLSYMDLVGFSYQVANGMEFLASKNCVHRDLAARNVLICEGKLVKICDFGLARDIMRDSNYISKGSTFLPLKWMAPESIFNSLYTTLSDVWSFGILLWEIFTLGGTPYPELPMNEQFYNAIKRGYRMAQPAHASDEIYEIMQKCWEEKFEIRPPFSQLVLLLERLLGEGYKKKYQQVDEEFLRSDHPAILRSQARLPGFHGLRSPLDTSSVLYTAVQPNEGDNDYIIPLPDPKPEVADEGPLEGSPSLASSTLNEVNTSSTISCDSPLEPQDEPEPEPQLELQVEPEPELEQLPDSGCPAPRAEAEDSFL
Summary of the method: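 The IC50 is the inhibitor level halving kinase activity relative to inhibitor-free wells, measured as 33P captured on a streptavidin-bound biotin-PLC1 peptide. The reaction ran 60 min at 30 °C in pH 8 Tris buffer with 1 mM DTT, 5 μM ATP and the 545–1106 kinase-domain enzyme.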

[2] = Homo sapiens, ASPC1; read-out: IC50 on cell proliferation, AsPC1
[3] = Homo sapiens, PC-3; read-out: IC50 on cell proliferation, PC3
[4] = Homo sapiens, A-375; read-out: IC50 on cell proliferation, A375

Work on COc1cccc(Nc2[nH]nc3c2Cc2cc4c(cc2-3)OCO4)c1 [Compound 97, (2,9-Dihydro-5,7-dioxa-2,3-diaza-cyclopenta[a]-s-indacen-1-yl)-(3-methoxy-phenyl)-amine] yielded an IC50 (AsPC1 (pancreas); [2]) of 5670 nM, an IC50 (PC3 (prostate); [3]) of 1680 nM and an IC50 (T47D (breast)) of 622 nM. The IC50 (A375 (melanoma); [4]) was 362 nM, the inhibition at 10 µM [1] was 91% and the IC50 [1] was 54 nM.
In the case of COc1cc2c(cc1OC)-c1n[nH]c(Nc3cccc(F)c3)c1C2 [Compound 14, (3-Fluoro-phenyl)-(6,7-dimethoxy-2,4-dihydro-indeno[1,2-c]pyrazol-3-yl)-amine], the IC50 (AsPC1 (pancreas); Homo sapiens, ASPC1, read-out: IC50 on cell proliferation, AsPC1) is reported as 592 nM, the IC50 (PC3 (prostate); Homo sapiens, PC-3, read-out: IC50 on cell proliferation, PC3) is reported as 20 nM and the IC50 (T47D (breast)) is reported as 32 nM. The IC50 (A375 (melanoma); Homo sapiens, A-375, read-out: IC50 on cell proliferation, A375) was 7 nM, the inhibition at 10 µM [1] was 108% and the IC50 [1] was 1.7 nM.
CN1CCN(c2ccc3c(c2)Cc2c-3n[nH]c2Nc2cccc(Br)c2)CC1 [Compound 122, (3-Bromo-phenyl)-[6-(4-methyl-piperazin-1-yl)-2,4-dihydro-indeno[1,2-c]pyrazol-3-yl]-amine] was tested, and the IC50 (AsPC1 (pancreas); [2]) was > 10000 nM, the IC50 (PC3 (prostate); [3]) was 6340 nM and the IC50 (T47D (breast)) was 10500 nM. The IC50 (A375 (melanoma); [4]) was 14400 nM, the inhibition at 10 µM [1] was 70% and the IC50 [1] was 16.2 nM.
COc1ccc2c(c1)-c1n[nH]c(Nc3ccccc3)c1C2 [Compound 39, (7-Methoxy-2,4-dihydro-indeno[1,2-c]pyrazol-3-yl)-phenyl-amine] was tested, and the IC50 (AsPC1 (pancreas); [2]) was > 10000 nM, the IC50 (PC3 (prostate); [3]) was > 10000 nM and the IC50 (T47D (breast)) was > 10000 nM. For the same compound, the IC50 (A375 (melanoma); [4]) was > 50000 nM and the inhibition at 10 µM [1] was 92%.
COc1cc2c(cc1OC)-c1n[nH]c(NCc3ccccc3)c1C2 [Compound 63, Benzyl-(6,7-dimethoxy-2,4-dihydro-indeno[1,2-c]pyrazol-3-yl)-amine] showed an IC50 (AsPC1 (pancreas); [2]) of 10300 nM, an IC50 (PC3 (prostate); [3]) of 6120 nM and an IC50 (T47D (breast)) of 2600 nM. For the same compound, the IC50 (A375 (melanoma); [4]) was 2840 nM, the inhibition at 10 µM [1] was 94% and the IC50 [1] was 191 nM.
Work on COc1cc2c(cc1OC)-c1n[nH]c(NCc3cc(Cl)ccc3Cl)c1C2 [Compound 330, (2,5-Dichloro-benzyl)-(6,7-dimethoxy-2,4-dihydro-indeno[1,2-c]pyrazol-3-yl)-amine] yielded an IC50 (AsPC1 (pancreas); [2]) of 1550 nM, an IC50 (PC3 (prostate); [3]) of 303 nM and an IC50 (T47D (breast)) of 355 nM. It also gave an IC50 (A375 (melanoma); [4]) of 2180 nM, an inhibition at 10 µM [1] of 100% and an IC50 [1] of 16.2 nM.
Work on COc1cc2c(cc1OC)-c1n[nH]c(Nc3ccccc3F)c1C2 [Compound 12, (6,7-Dimethoxy-2,4-dihydro-indeno[1,2-c]pyrazol-3-yl)-(2-fluoro-phenyl)-amine] yielded an IC50 (AsPC1 (pancreas); [2]) of 77 nM, an IC50 (PC3 (prostate); [3]) of 13 nM and an IC50 (T47D (breast)) of 31 nM. For the same compound, the IC50 (A375 (melanoma); [4]) was 11 nM, the inhibition at 10 µM [1] was 76% and the IC50 [1] was 56 nM.
For COC(=O)c1cccc(Nc2[nH]nc3c2Cc2cc(OC)c(OC)cc2-3)c1 [Compound 11, 3-(6,7-Dimethoxy-2,4-dihydro-indeno[1,2-c]pyrazol-3-ylamino)-benzoic acid methyl ester], the IC50 (AsPC1 (pancreas); [2]) was 30 nM, the IC50 (PC3 (prostate); [3]) was 14 nM and the IC50 (T47D (breast)) was 7 nM. It also gave an IC50 (A375 (melanoma); [4]) of 5 nM, an inhibition at 10 µM [1] of 97% and an IC50 [1] of 15.7 nM.
COC(=O)c1cccc(Nc2[nH]nc3c2Cc2cc(OCCCN4CCCC4)c(OC)cc2-3)c1 [Compound 157, 3-[7-Methoxy-6-(3-pyrrolidin-1-yl-propoxy)-2,4-dihydro-indeno[1,2-c]pyrazol-3-ylamino]-benzoic acid methyl ester] was tested, and the IC50 (AsPC1 (pancreas); [2]) was > 10000 nM, the IC50 (PC3 (prostate); [3]) was 3130 nM and the IC50 (T47D (breast)) was 1900 nM. The IC50 (A375 (melanoma); [4]) was 1230 nM, the inhibition at 10 µM [1] was 85% and the IC50 [1] was 7 nM.
Cc1ccc2c(c1)-c1n[nH]c(Nc3ccccc3)c1C2 [Compound 22, (7-Methyl-2,4-dihydro-indeno[1,2-c]pyrazol-3-yl)-phenyl-amine] was tested, and the IC50 (AsPC1 (pancreas); [2]) was > 10000 nM, the IC50 (PC3 (prostate); [3]) was 49500 nM and the IC50 (T47D (breast)) was 381 nM. The IC50 (A375 (melanoma); [4]) was 11600 nM, the inhibition at 10 µM [1] was 96% and the IC50 [1] was 45 nM.
In the case of COc1cc2c(cc1OC)-c1c(c(Nc3cccc(F)c3)nn1C(=O)CO)C2 [Compound 432, 1-[3-(3-Fluoro-phenylamino)-6,7-dimethoxy-4H-indeno[1,2-c]pyrazol-1-yl]-2-hydroxy-ethanone], the IC50 (AsPC1 (pancreas); [2]) is reported as 40 nM, the IC50 (PC3 (prostate); [3]) is reported as 12 nM and the IC50 (T47D (breast)) is reported as 6 nM. For the same compound, the IC50 (A375 (melanoma); [4]) was 2 nM, the inhibition at 10 µM [1] was 95.5% and the IC50 [1] was 38 nM.
With COc1cc2c(cc1OC)-c1n[nH]c(Nc3cccnc3)c1C2 [Compound 30, (6,7-Dimethoxy-2,4-dihydro-indeno[1,2-c]pyrazol-3-yl)-pyridin-3-yl-amine] the IC50 (AsPC1 (pancreas); [2]) was > 10000 nM, the IC50 (PC3 (prostate); [3]) was 175 nM and the IC50 (T47D (breast)) was 8200 nM. It also gave an IC50 (A375 (melanoma); [4]) of 507 nM, an inhibition at 10 µM [1] of 107% and an IC50 [1] of 16 nM.
